From patent publication US8669288B2, “Lysine salts of 4-((phenoxyalkyl)thio)-phenoxyacetic acid derivatives” (Janssen Pharmaceutica N.V., priority 2005, dated 2014)
Structures can show the parent of a compound that is named as a salt.

How the values were obtained:
Assay type in all cases: physicochemical
[1] = DVS isotherm, cycling humidity 0-90% RH; details: 25° C., 0-90% RH in 10% RH increments
Experimental: The non-hydrate, L-lysine salt of the compound of formula (Ia) was subjected to cycling humidity conditions, with results as shown in FIG. 3. More specifically, the sample was analyzed through a full cycle in step mode at 25° C., from 0-90% RH (relative humidity) in 10% RH increments. The equilibration conditions set were as follows: dm/dt of 0.0007; dm/dt window of 5 mins; minimum and maximum stages of 15 and 360 minutes. Data was collected in 1 minute intervals. Nitrogen was used as the carrier gas.

pKa = test: pKa
[2] = Solubility in distilled water

Row | Structure (SMILES) | Form conversion under cycling humidity conditions [1] | pKa (pKa) | solubility ([2]; pH 7.4, water) [µg/mL] | solubility ([2]; water, pH 2.0) [µg/mL]
1 | CCO[C@H](COc1ccc(C(F)(F)F)cc1)CSc1ccc(OCC(=O)O)c(C)c1 [{4-[2-Ethoxy-3-(4-trifluoromethyl-phenoxy)-propylsulfanyl]-2-methyl-phenoxy}-acetic acid L-Lysine non-hydrate salt] | reversibly converts to the corresponding di-hydrate form by absorbing water |  |  | 
2 | CCO[C@H](COc1ccc(C(F)(F)F)cc1)CSc1ccc(OCC(=O)O)c(C)c1 [Compound of formula (la), (R)-{4-[2-Ethoxy-3-(4-trifluoromethyl-phenoxy)-propylsulfanyl]-2-methyl-phenoxy}-acetic acid] |  | 3.63 | ~1000 | < 2
